# In PubChem BioAssay AID1963841 (Molecular Pharmacology Branch, DTP, NCI, 2024):
# Tested on: 439559-082-T-J2-PDC spheroid viability
# Assay: Anticancer human tumor 439559-082-T-J2-PDC patient-derived colon adenocarcinoma cell line growth inhibition [POLQ]
# Conditions: spheroids with HUVEC and MSC; for IC50: curve of first compound; for viability, T/C: stronger effect = lower value
# Method: Multicellular complex tumor spheroid response to Polymerase (POL) inhibitors (novobiocin, ART-558, RP6685) in combination with a variety of drugs and investigational agents in selected tumor cell lines
# The POL inhibitors (novobiocin, ART-558, and RP6685) were evaluated both individually and in combination with standard of care and investigational anticancer small molecules within a complex spheroid model of solid tumors. . Complex spheroids include a stromal component modeled by human endothelial cells (HUVEC) and fibroblasts modeled by human mesenchymal stem cells (MSCs). The concentration ranges selected for each drug and investigational agent were based upon clinically achievable concentrations if the clinical Cmax of the agent was known.
# Compounds. The drugs and investigational agents: novobiocin (NSC847541), ART-558 (NSC835418), RP-6685 (NSC848927), peposertib (NSC802822), ceralasertib (NSC780249), elimusertib (NSC800525), camonsertib (NSC841442), AZD-1390 (NSC803789), olaparib (NSC753686), talazoparib (NSC767125), rucaparib (NSC756644), sotorasib (NSC818433), MRTX-1133 (NSC836407), SN-38 (NSC673596), topotecan (NSC609699), epotoside (NSC141540), doxorubicin (NSC123127), gemcitabine (NSC613327), 5-fluorouracil (NSC19893), paclitaxel (NSC125973), vemurafenib (NSC761431), MSA-2 (NSC828583), SN-011 (NSC837082), adavosertib (NSC754352), prexasertib (NSC758257), carboplatin (NSC241240) and oxaliplatin (NSC266046), were obtained from the National Cancer Institute (NCI) Developmental Therapeutics Program Chemical Repository (21). The FDA-approved anticancer drug set is available from the Developmental Therapeutics Program at https://dtp.cancer.gov/organization/dscb/obtaining/. […] The stock solutions were prepared in dimethyl sulfoxide (DMSO, Sigma-Aldrich, St. Louis, MO, cat. D2650), except for the platinum compounds which were prepared in saline (Quality Biological, Gaithersburg, MD, cat. 114-055-101), at 800-fold the tested concentration and stored at -70 degrees C prior to their use. All drugs and investigational agents were tested over a range starting from a high concentration at or near the clinical Cmax and decreasing in half-log increments. If the clinical Cmax for an agent had not been determined, the highest concentration tested was 10 microM, except for SN-38, which was tested at a high concentration of 1 microM.
# Cell Culture. All cells were maintained in an incubator at 37 degrees C and 5% CO2 with 95% humidity. The PDC lines were cultured according to standard operating procedures established by the NCI PDMR (https://pdmr.cancer.gov). Table 3 of the manuscript, lists the cell lines along with the number of the three cell types plated to form the mct-spheroids and media for tumor cell growth. After thawing, all PDC lines, except 997537-175-T-J1-PDC and 415267-285-R-J2-PDC, were cultured in Matrigel-coated flasks prepared with a working solution of 1X Ham's F-12 nutrient mix, without supplementation (Thermo Fisher Scientific, cat. 11765054), 100 U/mL penicillin-streptomycin (Thermo Fisher Scientific, cat. 15140122), and 2.5% Matrigel (Corning Inc., Corning, NY, cat. 354248) for the first three passages. The two PDC lines 997537-175-T-J1-PDC and 415267-285-R-J2-PDC were cultured on uncoated flasks. The 857933-349-R-J2-PDC line was cultured in 6C/Colon 1B media containing advanced DMEM/F-12 (Thermo Fisher Scientific, cat. 12634028), 10 mM HEPES (Thermo Fisher Scientific, cat. 15630080), 1X GlutaMAX supplement (Thermo Fisher Scientific, cat. 35050061), 0.1 mg/mL primocin (InvivoGen, San Diego, CA, cat. ant-pm-2), 10% defined fetal bovine serum, heat inactivated (HyClone Laboratories Inc., Logan, UT, cat. SH30070.03HI), 50% L-WRN conditioned media (ATCC, cat. CRL-3276), 1.25 mM N-Acetyl-L-cysteine (Sigma-Aldrich, cat. A9165), 10 mM nicotinamide (Sigma-Aldrich, cat. N0636), 1X B-27 supplement (Thermo Fisher Scientific, cat. 17504044), 1X N-2 supplement (Thermo Fisher Scientific, cat. […]
# 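Note: spheroids exposed to compounds for seven days before readout.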
# 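Throughout, for viability, T/C: 100% = DMSO vehicle control viability.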
structure (smiles),measurement,setting,value
CC(=O)O[C@H]1C(=O)[C@@]2(C)[C@H]([C@H](OC(=O)c3ccccc3)[C@]3(O)C[C@H](OC(=O)[C@H](O)[C@@H](NC(=O)c4ccccc4)c4ccccc4)C(C)=C1C3(C)C)[C@]1(OC(C)=O)CO[C@@H]1C[C@@H]2O + Nc1ccc(C#CCN(C(=O)Cc2ncc(C(F)(F)F)cc2C(F)(F)F)c2ccc(F)cc2)nn1,IC50,second compound 0.0316 µM,730 nM
same,IC50,second compound 0.1 µM,1250 nM
same,IC50,second compound 0.316 µM,807 nM
same,IC50,second compound 1 µM,898 nM
same,IC50,second compound 3.16 µM,511 nM
same,IC50,second compound 10 µM,363 nM
same,"viability, T/C","second compound 0.0316 µM, first compound 0.00949 µM",51.6%
same,"viability, T/C","second compound 0.0316 µM, first compound 0.03 µM",54.9%
same,"viability, T/C","second compound 0.0316 µM, first compound 0.0949 µM",75.6%
same,"viability, T/C","second compound 0.0316 µM, first compound 0.3 µM",77.2%
same,"viability, T/C","second compound 0.0316 µM, first compound 0.949 µM",45.6%
same,"viability, T/C","second compound 0.0316 µM, first compound 3 µM",22.1%
same,"viability, T/C","second compound 0.1 µM, first compound 0.00949 µM",53%
same,"viability, T/C","second compound 0.1 µM, first compound 0.03 µM",53.8%
same,"viability, T/C","second compound 0.1 µM, first compound 0.0949 µM",72.7%
same,"viability, T/C","second compound 0.1 µM, first compound 0.3 µM",77.3%
same,"viability, T/C","second compound 0.1 µM, first compound 0.949 µM",53.2%
same,"viability, T/C","second compound 0.1 µM, first compound 3 µM",25.8%
same,"viability, T/C","second compound 0.316 µM, first compound 0.00949 µM",54%
same,"viability, T/C","second compound 0.316 µM, first compound 0.03 µM",58.5%
same,"viability, T/C","second compound 0.316 µM, first compound 0.0949 µM",79.9%
same,"viability, T/C","second compound 0.316 µM, first compound 0.3 µM",78.7%
same,"viability, T/C","second compound 0.316 µM, first compound 0.949 µM",47.1%
same,"viability, T/C","second compound 0.316 µM, first compound 3 µM",18.9%
same,"viability, T/C","second compound 1 µM, first compound 0.00949 µM",46.2%
same,"viability, T/C","second compound 1 µM, first compound 0.03 µM",56.7%
same,"viability, T/C","second compound 1 µM, first compound 0.0949 µM",82.3%
same,"viability, T/C","second compound 1 µM, first compound 0.3 µM",79.8%
same,"viability, T/C","second compound 1 µM, first compound 0.949 µM",49.2%
same,"viability, T/C","second compound 1 µM, first compound 3 µM",19%
same,"viability, T/C","second compound 3.16 µM, first compound 0.00949 µM",37.2%
same,"viability, T/C","second compound 3.16 µM, first compound 0.03 µM",53.5%
same,"viability, T/C","second compound 3.16 µM, first compound 0.0949 µM",81.9%
same,"viability, T/C","second compound 3.16 µM, first compound 0.3 µM",69%
same,"viability, T/C","second compound 3.16 µM, first compound 0.949 µM",37.9%
same,"viability, T/C","second compound 3.16 µM, first compound 3 µM",19.5%
same,"viability, T/C","second compound 10 µM, first compound 0.00949 µM",42.8%
same,"viability, T/C","second compound 10 µM, first compound 0.03 µM",48%
same,"viability, T/C","second compound 10 µM, first compound 0.0949 µM",68.8%
same,"viability, T/C","second compound 10 µM, first compound 0.3 µM",51.7%
same,"viability, T/C","second compound 10 µM, first compound 0.949 µM",38%
same,"viability, T/C","second compound 10 µM, first compound 3 µM",21.9%
